Data reported in article PMC10518255, “A first-in-class pan-lysyl oxidase inhibitor impairs stromal remodeling and enhances gemcitabine response and survival in pancreatic cancer” (Nature Cancer, 2023).
“And” between values parts separate entries of the source, which are not always exact repeats. Identical values can stand only once.

How the values were obtained:
[1] = test system: TKCC10 human PDX tumors; assay: TKCC10 human model survival study (Extended Data Fig. 5k); assay type: in vivo, mouse
Protocol: Subcutaneous PDX studies were performed by implanting early passage PDX pieces (~4 mm^3) or TKCC10 CCs (1.5 × 10^6 cells per mouse in 100 μl PBS/Matrigel 1:1) into female (PDX) or male (TKCC10) 8-week-old immunocompromised nude Balb/c-Fox1nuAusb mice subcutaneously on the left flank. For the duration of the study, mice were kept in conventional caging with environmental enrichment, access to standard chow, water ad libitum and 12-h light–dark cycle at ambient temperature and humidity. […] Tumor size was monitored every second day by calipers. Tumor volume was calculated using the formula (length × width^2)/2. […]
Extended Data Fig. 5 PXS-5505 in combination with gemcitabine in vivo. a. […] Signal is defined as the enzyme activity in the aorta, while noise is measured in the presence of a high concentration (300 µM) BAPN to abolish any lysyl oxidase family activity. […] FITC-dextran (molecular weight: 10 kDa) signal quantification from KPC tumor end point from each treatment group (vehicle n = 3 biologically independent animals, PXS-5505 n = 5 biologically independent animals, Gem n = 5 biologically independent animals, PXS-5505 + Gem n = 5 biologically independent animals). […] P-values determined by Welchs t-test. […] Quantification of red birefringent (mature) collagen fibers from human PDXs at end point after 3 cycles of treatment, treated as indicated. […]

[2] = test system: KPC mouse model of PDAC; assay: Quantification of liver metastases (H&E), KPC survival study (Fig. 4g); assay type: in vivo; settings: for liver metastases/mm2: individual animals
Protocol: Fig. 4 PXS-5505 administered in a KPC in vivo survival study. a, Schematic of the KPC in vivo survival study. Presence of a primary tumor in KPC mice was confirmed by two independent researchers (positive diagnosis) before commencement of daily treatment (Tx) on one of four treatment arms as follows: vehicle, 0.9% saline; Gem, twice-weekly gemcitabine (100 mg kg^−1 i.p.); PXS-5505, daily PXS-5505 at 20 mg kg^−1 i.p.; and PXS-5505 + Gem, daily PXS-5505 at 20 mg kg^−1 i.p. + twice-weekly gemcitabine (100 mg kg^−1 i.p.). b, Table of median survival (since diagnosis/commencement of treatment) across the four treatment groups (n = 30 biologically independent animals (vehicle), n = 31 biologically independent animals (Gem), n = 36 biologically independent animals (PXS-5505), n = 46 biologically independent animals (PXS-5505 + Gem)). c, Kaplan–Meier curves for overall survival across treatment arms (n = 30 biologically independent animals (vehicle), n = 31 biologically independent animals (Gem), n = 36 biologically independent animals (PXS-5505), n = 46 biologically independent animals (PXS-5505 + Gem)). P values determined by log-rank (Mantel–Cox) test. d, Representative maximum intensity projections of SHG multiphoton imaging for tumors from each treatment group (n = 1 FOV taken from one biologically independent animal per group) at end point (scale bars, 100 μm) and quantification of SHG peak signal intensity (n = 5 biologically independent animals per group and five FOV per animal). Data are mean ± s.d. […] Quantification of metastases (n = 18 biologically independent animals (vehicle), n = 18 biologically independent animals (Gem), n = 17 biologically independent animals (PXS-5505), n = 15 biologically independent animals (PXS-5505 + Gem)). Data are mean ± s.d.
The 4-µm formalin-fixed paraffin-embedded (FFPE) sections were cut and stained for H&E following standard histopathology methodologies or stained for CK19 using the Bond RX H2(30) protocol detailed above. […] The total number of liver metastases were quantified and determined using QuPath[57].

[3] = test system: APMA human PDX tumors; assay: APMA human PDX model, tumor volumes at end point (Extended Data Fig. 5g); assay type: in vivo, mouse; settings: Extended Data 5G; second human PDX model after 3 cycles of treatment; individual animals
Protocol: Subcutaneous PDX studies were performed by implanting early passage PDX pieces (~4 mm^3) or TKCC10 CCs (1.5 × 10^6 cells per mouse in 100 μl PBS/Matrigel 1:1) into female (PDX) or male (TKCC10) 8-week-old immunocompromised nude Balb/c-Fox1nuAusb mice subcutaneously on the left flank. For the duration of the study, mice were kept in conventional caging with environmental enrichment, access to standard chow, water ad libitum and 12-h light–dark cycle at ambient temperature and humidity. Treatment began when tumors reached 150 mm^3, where each mouse was randomized into a treatment group and administered gemcitabine HCl (100 mg kg^−1 in saline) (Jomar Life Research) or vehicle control (0.9% saline) by i.p. injection twice weekly on day 2 and 4 of the treatment cycle until an ethical end point was reached. These included maximal tumor mass ≥10% of body weight, weight loss ≥20% from maximum body weight or tumor interfering with mobility and affecting access to food and water. Animals with non-tumor-related complications that led to a premature end point were censored. PXS-5505 (20 mg kg^−1 in saline) or vehicle (0.9% saline) was administered daily by i.p. injection. Tumor size was monitored every second day by calipers. Tumor volume was calculated using the formula (length × width^2)/2. At day 39, mice were killed via CO2 and cervical dislocation and tumors were collected and processed. […]

Compound	median survival (time under treatment after tumor reached 50 mm^3) [1] [days]	metastatic foci / metastatic burden in the liver ([2]; compared to vehicle)	liver metastases/mm2 [2]	Tumour volumes at endpoint [3]
Nc1ccn([C@@H]2O[C@H](CO)[C@@H](O)C2(F)F)c(=O)n1 [Gem, gemcitabine]	29	did not reduce the number of metastatic foci	0.000998 /mm2 and 0.00153 /mm2 and 0.000533 /mm2 and 0.002596 /mm2 and 0.002539 /mm2 and 0.002266 /mm2 and 0.001775 /mm2 and 0.001805 /mm2 and 0.001681 /mm2 and 0.002472 /mm2 and 0.001465 /mm2 and 0.003681 /mm2 and 0.001157 /mm2 and 0.004279 /mm2 and 0.0007747 /mm2 and 0.000926 /mm2 and 0.002131 /mm2 and 0.001372 /mm2	145.448 mm3 and 9.626 mm3 and 12.4718 mm3 and 45.315 mm3 and 3.952 mm3 and 50.8335 mm3 and 16.8359 mm3 and 29.7673 mm3 and 51.7185 mm3 and 16.7442 mm3
Cl.Cl.NC/C=C(\F)CS(=O)(=O)c1cccc2cccnc12.O [PXS-5505, (Z)-3-fluoro-4-(quinolin-8-ylsulfonyl)but-2-en-1-amine dihydrochloride monohydrate]	16	–	0.001562 /mm2 and 0.001978 /mm2 and 0.00288 /mm2 and 0.001774 /mm2 and 0.002087 /mm2 and 0.001249 /mm2 and 0.00165 /mm2 and 0.00324 /mm2 and 0.001709 /mm2 and 0.002256 /mm2 and 0.001847 /mm2 and 0.001474 /mm2 and 0.001116 /mm2 and 0.0009543 /mm2 and 0.001461 /mm2 and 0.00148 /mm2 and 0.001125 /mm2	111.838 mm3 and 144.188 mm3 and 186.048 mm3 and 277.687 mm3 and 285.67 mm3 and 63.9218 mm3 and 265.041 mm3 and 180.58 mm3 and 65.1463 mm3
